We go through 2 substances from patent US20100310451A1, “ALTERED N-CADHERIN PROCESSING IN TUMOR CELLS BY FURIN AND PROPROTEIN CONVERTASE 5A (PC5A)” (THE ROYAL INSTITUTION FOR THE ADVANCEMENT OF LEARN, priority 2007, published 2010).

The star is where a group is joined. Decanoyl = CCCCCCCCCC(=O)*; CH2Cl = ClC*

Assay [1] deals with proprotein convertases (PCs). The assay is described as follows: N-cadherin proteolytic processing assay, transfected U251 and U343 glioma cells. Type of assay: cell-based, human. The settings on record: U251 and U343 cells transfected with N-cadherin; dec-cmk in culture medium. Here is the method:
(§1) To assess N-cadherin proteolytic processing, we devised an assay where N-terminal cleavage products were detected in the conditioned medium of cells using the proN antibody. Cells were transiently transfected with the appropriate construct(s), the conditioned medium was collected 36 h later, concentrated, and total protein concentration was determined using a Lowry assay (Biorad). Conditioned medium (15 μg protein) was run on a 15% gel, and cleavage products detected were as follows: a 17 kDa band corresponded to cleavage at the consensus site, and a 20 kDa band represented cleavage at the second site.

Assay [2] has as its system proprotein convertases (PCs). The assay is described as follows: N-cadherin proteolytic processing assay, transfected HeLa cells. Type of assay: cell-based. The settings on record: HeLa cells transfected with N-cadherin +/- FL-PC5A; 50 μM dec-cmk; proN antibody. Here is the method: as §1
Assay [3] has as its system PC5A. The assay is described as follows: Endogenous PC5A cell surface localization, glioma cells. Type of assay: cell-based, human. The settings on record: U251 and U343 cells; heparin added to the cells. As for the experimental part:
(§2) Live-cell staining was carried out by incubating cells plated on coverslips with primary antibody diluted in medium without serum at 4° C. for 1 h. The cells were washed with PBS and fixed in 4% paraformaldehyde. Following washes with PBS, cells were incubated with fluorescent-conjugated secondary antibody diluted in 1% BSA, 0.02% TritonX, PBS, for 40 min at room temperature. Coverslips were then mounted and examined as above. For surface PC5A staining, cells were washed twice with ice-cold PBS, fixed with freshly prepared 3.7% paraformaldehyde for 10 min on ice, washed 3 times with PBS, incubated in 150 mM glycine for 5 min, washed once with PBS, blocked for 30 min in 1% BSA, incubated in primary antibody overnight at 4° C., washed 4 times with PBS, incubated with secondary antibody for 40 min at room temperature, and washed 4 times with PBS. Coverslips were mounted and examined as above.

In assay [4] the test system is PC5A. Description: PC5A cell surface localization, FL-PC5A transfected HeLa cells. Type of assay: cell-based. The settings on record: HeLa cells transfected with FL-PC5A; heparin added to culture medium; non-permeabilizing. Here is the method: as §2

Turning to “Decanoyl-Arg-Val-Lys-Arg-chloromethylketone (Decanoyl-RVKR-CH2Cl) [dec-cmk]”, the “N-cadherin cleavage products in conditioned medium” value in assay [1] and in assay [2] was “no cleavage products detected” in each case.

With heparin, the “PC5A detection at the cell surface” value with PC5A [3] was “not detected”. Further, the “PC5A detection on the cell surface” value in the assay on PC5A [4] is given as “not detected”.
